Source: paper PMC6270839, “Synthesis and Biological Evaluation of Novel 10-Substituted-7-ethyl-10-hydroxycamptothecin (SN-38) Prodrugs” (Molecules, 2014)
Read-outs that look alike come from different tables or passages of the source.

Legend:
[1] = system: SGC-7901 human gastric adenocarcinoma cancer cell line; assay: MTT in vitro antitumor (antiproliferative) assay, SGC-7901; format: cell-based; details: for IC50: Homo sapiens, read-out: IC50 SGC-7901; for fold greater antiproliferative activity (lower IC50) than irinotecan, SGC-7901 cells: IC50 ratio vs irinotecan
Method: (§1) The in vitro antitumor activities were evaluated on human cancer cell lines SGC-7901 and HeLa by the MTT assay, using irinotecan as the reference compound.
(§2) The in vitro antitumor activity was evaluated on two human cancer cell lines with the MTT method. SGC-7901 is a human gastric adenocarcinoma cancer cell line and HeLa is a human cervical carcinoma cell line. Cells were provided by the Jilin Province Tumor Institute. Cells were maintained in IMDM medium supplemented with 10% fetal calf serum, 2 mM glutamine, 100 U/mL penicillin, and 100 μg/mL streptomycin, at 37 °C in a humidified atmosphere containing 5% CO2. The human cancer lines SGC-7901 and HELA at a concentration of […] were incubated in a 96-well microtiter plate (100 μL in every well) for 24 h (37 °C, 5%CO2). Then the cells were incubated continuously for 72 h following various concentrations of test drugs were added. The concentrations are 50 μM, 10 μM, 2 μM, 0.4 μM, 0.08 μM, 0.016 μM, 0.0032 μM, respectively. After the 100 μL 0.05% MTT solution was added to each well, the plate was incubated for a further 4 h before removal of medium, the media removed. Formazan crystals were dissolved with 100 μL DMSO, then the absorbance was detected at 490 nm.

[2] = system: HeLa human cervical carcinoma cell line; assay: MTT in vitro antitumor (antiproliferative) assay, HeLa; format: cell-based
Method: as §1, §2

AChE from electric eel = AChE from electric eel (Electrophorus electricus, UniProt O42275); assay: AChE inhibition assay (modified Ellman method); format: biochemical; details: phosphate buffer pH 7.3, 37 °C
Description: Irinotecan has been reported to be a potent inhibiter of AChE, and inhibition of this enzyme causes acute cholinergic diarrhea. Unlike irinotecan, the compounds we assayed were only weak inhibitors of AChE. […] One possible explanation is that the active site of AChE is present at the bottom of a gorge that is lined with hydrophobic amino acid residues. The terminal dipiperidino moiety in CPT-11 that interacts with amino acid residues within AChE plays a major role in enzyme inhibition, which has been confirmed by X-ray crystallographic studies.
The AChE inhibition by all compounds was studied according to a modification of the method of Ellman et al.. The activity was assayed with AChE from electric eel in the presence or absence of the test compounds in phosphate buffer (pH7.3). After the incubation at 37 °C for 1 min, 0.38 mM 5,5-dithiobisnitrobenzoic acid and 0.56 mM ATCh were added to the buffer. The changes in absorbance were read at 412 nm, per 15 s intervals for 3 min by a spectrophotometer (UV-2500, Shimadzu Corp., Kyoto, Japan).

[3] = Chemical stability of the prodrugs in PBS (HPLC); format: physicochemical; details: for Remaining Prodrugs 1 h pH 4.6 / Remaining Prodrugs 12 h pH 4.6: PBS pH 4.6, 37 °C; for Remaining Prodrugs 1 h pH 7.4 / Remaining Prodrugs 12 h pH 7.4: PBS pH 7.4, 37 °C
Method: They were stable at pH 4.6 at 37 °C for 12 h. Except for compound 5h, less than 35% of the prodrugs remained after incubation for 12 h in pH 7.4 buffer. […] For example, less than 30% of the prodrugs 7a–f remained, while more than 85% of the prodrugs 5a–h remained after incubation for 1 h in pH 7.4 buffer.
The stability of all compounds was investigated in PBS and human plasma by HPLC using a C18 analytical column. The mobile phase was composed of water and acetonitrile at a ratio of 70:30, respectively, containing 1% trifluoroacetic acid. The amount of the compound and its metabolite SN-38 were flowed at the rate of 0.8 mL·min^−1 and detected by the UV wavelength of 370 nm. Stability test in PBS: each compound was dissolved in PBS (pH 7.4 and pH 4.6), incubated at 37 °C and analyzed at 1, 3, 6, 12 h. Stability test in plasma: The test compounds were dissolved in DMSO and diluted to 1 mM by 0.9% physiological saline. Forty μL of each solution was added into plasma with a final concentration of 0.1 mM. The mixture was incubated in a 37 °C water bath following the vigorous vortex mixing for 15 s. Samples were analyzed at 1, 3, 6, 12 h. 400 μL of cold acetonitrile (containing 1% trifluoroacetic acid) was added to each sample, vortex-mixed for 15 s and centrifuged at 3500 rpm for 15 min at 4 °C.

[4] = system: human colon adenocarcinoma SW1116 xenografts; assay: Tumor growth inhibition in human colon adenocarcinoma SW1116 xenografts in nude mice; format: in vivo; details: 60 mg/kg; for Tumor Weight / Inhibitory Rate: injection in the tumor section once per day for 6 days; for Tumor Weight: SW1116 xenograft nude mice, x ± SD; for Inhibitory Rate: day 6, vs vehicle; for Body Weight Change: once per day for 6 days, nude mice
Method: The antitumor activity of 5e, compared with CPT-11 and SN-38, was investigated in human colon adenocarcinoma SW1116 xenografts in nude mice. The model animals were divided into four experimental groups, eight animals per group. Tested compouds were each administered by injection in the tumor section once per day for contiguous 6 days. The injection doses of test compound 5e, CPT-11, and SN-38 were 60 mg/kg, respectively. Using the vehicle group as the control, we tested the inhibitory activities of these compounds for 6 days and measured the changes in body weight and tumor size every 2 days. […] No toxic death occurred after drug treatment, and the body weight losses induced by 5e, CPT-11, and SN-38 at the given dose were similar.

[5] = design: method as in PMID 11716702, PMID 15217940, PMID 19495753; details: cited from earlier work

Chain of AChE from electric eel (O42275 24-633): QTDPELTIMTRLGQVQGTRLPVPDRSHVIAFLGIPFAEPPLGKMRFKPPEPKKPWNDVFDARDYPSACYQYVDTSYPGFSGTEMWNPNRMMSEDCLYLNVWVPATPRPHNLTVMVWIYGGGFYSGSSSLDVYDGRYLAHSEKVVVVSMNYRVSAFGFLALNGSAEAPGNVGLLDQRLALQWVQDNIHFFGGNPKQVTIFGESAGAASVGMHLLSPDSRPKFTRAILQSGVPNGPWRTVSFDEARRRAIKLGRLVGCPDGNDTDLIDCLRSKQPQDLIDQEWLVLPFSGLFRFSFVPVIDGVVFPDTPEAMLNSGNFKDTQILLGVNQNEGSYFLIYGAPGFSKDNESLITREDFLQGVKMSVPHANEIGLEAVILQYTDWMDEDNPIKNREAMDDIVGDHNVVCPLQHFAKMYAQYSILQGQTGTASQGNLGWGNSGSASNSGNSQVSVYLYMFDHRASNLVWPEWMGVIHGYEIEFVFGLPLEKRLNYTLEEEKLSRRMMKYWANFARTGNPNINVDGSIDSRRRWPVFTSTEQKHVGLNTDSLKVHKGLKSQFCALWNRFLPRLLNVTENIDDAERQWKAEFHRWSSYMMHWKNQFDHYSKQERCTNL

| Structure (SMILES) | IC50 ([1]; SGC-7901, 72 h) [nM] | IC50 ([2]; 72 h, read-out: IC50 HeLa) [nM] | IC50 (AChE from electric eel; AChE IC50, electric eel AChE) [nM] | Remaining Prodrugs 1 h pH 4.6 [3] [%] | Remaining Prodrugs 12 h pH 4.6 [3] [%] | Remaining Prodrugs 1 h pH 7.4 [3] [%] | Remaining Prodrugs 12 h pH 7.4 [3] [%] | further results |
| --- | --- | --- | --- | --- | --- | --- | --- | --- |
| CCc1c2c(nc3ccc(OC(=O)NCC(=O)O)cc13)-c1cc3c(c(=O)n1C2)COC(=O)[C@]3(O)CC [Compound 5a, 10-OCO-(Gly-OH)-SN-38] | 2690 ± 110 | 30.4 | 19800 | 100 | 98.4 | 85.3 | 14.8 |  |
| CCc1c2c(nc3ccc(OC(=O)NC(C)C(=O)O)cc13)-c1cc3c(c(=O)n1C2)COC(=O)[C@]3(O)CC (stereo partly drawn) [Compound 5b, 10-OCO-(Ala-OH)-SN-38] | 1750 ± 600 | 9.85 |  |  |  |  |  |  |
| CCc1c2c(nc3ccc(OC(=O)NC(C(=O)O)C(C)C)cc13)-c1cc3c(c(=O)n1C2)COC(=O)[C@]3(O)CC (stereo partly drawn) [Compound 5c, 10-OCO-(Val-OH)-SN-38] | 1880 ± 720 | 5.61 |  |  |  |  |  |  |
| CCc1c2c(nc3ccc(OC(=O)NC(CCC(=O)O)C(=O)O)cc13)-c1cc3c(c(=O)n1C2)COC(=O)[C@]3(O)CC (stereo partly drawn) [Compound 5d, 10-OCO-(Glu-OH)-SN-38] |  |  |  | 98.1 | 92.5 | 85.2 | 8.6 |  |
| CCc1c2c(nc3ccc(OC(=O)NC(CC(C)C)C(=O)O)cc13)-c1cc3c(c(=O)n1C2)COC(=O)[C@]3(O)CC (stereo partly drawn) [Compound 5e, 10-OCO-(Leu-OH)-SN-38] | 500 ± 190 | 1.82 |  |  |  |  |  | Tumor Weight [4]: 0.17 ± 0.05 g/10g |
| CCc1c2c(nc3ccc(OC(=O)NC(C(=O)O)C(C)CC)cc13)-c1cc3c(c(=O)n1C2)COC(=O)[C@]3(O)CC (stereo partly drawn) [Compound 5f, 10-OCO-(Ile-OH)-SN-38] | 760 ± 340 | 3.64 | 1360 |  |  |  |  |  |
| CCc1c2c(nc3ccc(OC(=O)N[C@H](CC(=O)O)C(=O)O)cc13)-c1cc3c(c(=O)n1C2)COC(=O)[C@]3(O)CC [Compound 5g, 10-OCO-(L-Asp-OH)-SN-38] | 980 ± 50 | 9.07 | 3080 | 100 | 94.5 | 93.9 | 34.1 |  |
| CCc1c2c(nc3ccc(OC(=O)N[C@@H](CC(=O)O)C(=O)O)cc13)-c1cc3c(c(=O)n1C2)COC(=O)[C@]3(O)CC [Compound 5h, 10-OCO-(D-Asp-OH)-SN-38] | 240 | < 3.2 | 7430 | 100 | 94.5 | 93.4 | 52.2 | fold greater antiproliferative activity (lower IC50) than irinotecan, SGC-7901 cells [1]: 30 fold |
| CCc1c2c(nc3ccc(OC(=O)NCC(=O)N[C@H](CC(=O)O)C(=O)O)cc13)-c1cc3c(c(=O)n1C2)COC(=O)[C@]3(O)CC [Compound 7a, 10-OCO-(D-Asp-Gly-OH)-SN-38] | 1040 ± 900 | < 3.2 | 116000 | 100 | 96.8 | 26.0 | 0 |  |
| CCc1c2c(nc3ccc(OC(=O)NCC(=O)N[C@@H](CC(=O)O)C(=O)O)cc13)-c1cc3c(c(=O)n1C2)COC(=O)[C@]3(O)CC [Compound 7b, 10-OCO-(L-Asp-Gly-OH)-SN-38] | 610 ± 680 | 14.8 |  | 100 | 96.9 | 17.6 | 0 |  |
| CCc1c2c(nc3ccc(OC(=O)NCC(=O)NC(CCC(=O)O)C(=O)O)cc13)-c1cc3c(c(=O)n1C2)COC(=O)[C@]3(O)CC (stereo partly drawn) [Compound 7c, 10-OCO-(Glu-Gly-OH)-SN-38] | 200 ± 70 | < 3.2 | > 100000 | 100 | 96.4 | 29.4 | 0 | fold greater antiproliferative activity (lower IC50) than irinotecan, SGC-7901 cells [1]: 30 fold |
| CCc1c2c(nc3ccc(OC(=O)NC(C)C(=O)N[C@H](CC(=O)O)C(=O)O)cc13)-c1cc3c(c(=O)n1C2)COC(=O)[C@]3(O)CC (stereo partly drawn) [Compound 7d, 10-OCO-(D-Asp-Ala-OH)-SN-38] | 260 ± 640 | < 3.2 | 4440 | 100 | 95.5 | 26.3 | 0 | fold greater antiproliferative activity (lower IC50) than irinotecan, SGC-7901 cells [1]: 30 fold |
| CCc1c2c(nc3ccc(OC(=O)NC(C)C(=O)N[C@@H](CC(=O)O)C(=O)O)cc13)-c1cc3c(c(=O)n1C2)COC(=O)[C@]3(O)CC (stereo partly drawn) [Compound 7e, 10-OCO-(L-Asp-Ala-OH)-SN-38] | 210 ± 550 | 12.9 |  | 100 | 94.5 | 23.4 | 0 |  |
| CCc1c2c(nc3ccc(OC(=O)NC(C)C(=O)NC(CCC(=O)O)C(=O)O)cc13)-c1cc3c(c(=O)n1C2)COC(=O)[C@]3(O)CC (stereo partly drawn) [Compound 7f, 10-OCO-(Glu-Ala-OH)-SN-38] | 270 ± 180 | 1.57 | 36100 | 100 | 94.7 | 14.4 | 0 | fold greater antiproliferative activity (lower IC50) than irinotecan, SGC-7901 cells [1]: 30 fold; IC50 ([2]; 72 h, read-out: IC50 against HeLa cells): < 3.2 nM |
| CCc1c2c(nc3ccc(OC(=O)N4CCC(N5CCCCC5)CC4)cc13)-c1cc3c(c(=O)n1C2)COC(=O)[C@]3(O)CC [Irinotecan, 7-ethyl-10-[4-(1-piperidino)-1-piperidino]-carbonyloxycamptothecin] |  |  |  |  |  |  |  | IC50 ([1]; SGC-7901, MTT, 72 h incubation): 7380 ± 1240 nM; IC50 ([2]; MTT, 72 h incubation, read-out: IC50 HeLa): 1320 ± 130 nM; IC50 (AChE from electric eel; electric eel AChE, read-out: AChE IC50): 200 nM; Tumor Weight [4]: 0.17 ± 0.04 g/10g; Inhibitory Rate [4]: 51%; Body Weight Change [4]: -3.10 g; Body Weight Change ([4]; listed as CPT-11): similar; bioconversion efficiency from irinotecan to the active form SN-38 [5]: 4%–5% |
| CCc1c2c(nc3ccc(O)cc13)-c1cc3c(c(=O)n1C2)COC(=O)[C@]3(O)CC [SN-38, 7-ethyl-10-hydroxycamptothecin] |  |  |  |  |  |  |  | Tumor Weight [4]: 0.32 ± 0.12 g/10g; Inhibitory Rate [4]: 8.6% |
